In brackets after ≈: the same amount, converted by molar mass.
Legend:
Assay type in all cases: cell-based
Fusobcaterium nucleatum = experiment: Minimum Inhibitory Concentration (MIC), two-fold dilutions in trypticase soy broth
Procedure: (§1) Minimum Inhibitory Concentration (MIC) values are determined generally according to the following method: A series of two-fold dilutions in trypticase soy broth (Catalog No. 211768; Becton Dickinson, Franklin Lakes N.J.) are prepared in a 96 well plate and a constant amount of bacteria is then added to each well. After 18-24 hours of incubation, bacterial growth is measured with a Spectrophotometric Micro-plate Reader (Powerwave 5×, BioTEK, Winooski Vt.) and the MIC values are determined.
(§2) Table 4 (below) describes the antibacterial efficacy of isopropyl magnolol against various oral pathogens.

Streptoccus mutans = experiment: as above
Procedure: as §1, §2

Actinomyces viscosus = experiment: as above; settings: 18-24 hours of incubation
Procedure: as §1, §2

Streptococcus sanguis = experiment: as above; settings: 18-24 hours of incubation
Procedure: as §1, §2

A. actinomycetemcomitans = experiment: as above; settings: Aggregatibacter actinomycetemcomitans, 18-24 hours of incubation
Procedure: as §1, §2

PGE2 = experiment: Mat Tek PGE2 tissue model, anti-inflammatory activity; settings: dentifrice slurry 1:4 in PBS, base dentifrice with 1% active; 2 minutes treatment; IL-β about 10 ng/ml
Procedure: Anti-inflammatory activity of IPM is evaluated using the Mat Tek PGE2 tissue model.
One (1) mL of tissue culture media (supplied by MatTek) is added to each well of a 6-well plate (×4). The plate is incubated overnight (37° C., 5% CO2). Treatment solutions comprising the dentifrice slurries are prepared, wherein the base dentifrice contains 1% isopropyl magnolol. Slurries of the dentifrices are prepared in a 1:4 ratio by weight of dentifrice:phosphate buffered saline (PBS). Slurries are placed on a stir plate for a minimum of 30 minutes to allow the solution to fully homogenize.
The tissue media is prepared by adding IL-β from a frozen stock solution to the tissue culture media. The final concentration of IL-β in the media is about 10 ng/ml.
1 ml of tissue culture media containing IL-β is added to each well of a 6-well plate (×4). […] of treatment solution is then added to the surface of the tissue and let sit for 2 minutes. The treatment solution is removed by aspiration.
The tissue is then washed using about 200 μl of PBS. PBS is then removed by aspiration, and the process is repeated for a total of 3 washes.
Tissue is then transferred the original 6-well plates to new 6-well plates with media containing IL-β. The plates are incubated (37° C., 5% CO2) for between 7 and 24 hours, depending on the active or dentifrice being tested.
The used media from the old 6-well plates is pipetted into a single 24-well plate, for use as a baseline sample. The plates are removed from the incubator and the used media is pipetted from the 6-well plates into a single 24-well plate, for use as a reference sample for the designated time point. The results of this assay are described in Table 3 (below).

Row | SMILES | MIC (Fusobcaterium nucleatum) [µg/mL] | MIC (Streptoccus mutans) [µg/mL] | MIC (Actinomyces viscosus) [µg/mL] | MIC (Streptococcus sanguis) [µg/mL] | MIC (A. actinomycetemcomitans) [µg/mL] | PGE2 reduction (%) (PGE2)
1 | CC(C)c1ccc(O)c(-c2cc(C(C)C)ccc2O)c1 [Isopropyl magnolol, 5,5′-diisopropyl-2,2′-dihydroxy biphenol] | 0.97 (≈ 3.59 µM) | 3.9 (≈ 14.4 µM) | 3.9 (≈ 14.4 µM) | 1.95 (≈ 7.21 µM) | 3.9 (≈ 14.4 µM) | 90.88
2 | C=CCc1ccc(O)c(-c2cc(CC=C)ccc2O)c1 [Magnolol, 5,5′-Diallyl-biphenyl-2,2′-diol] | 7.8 (≈ 29.3 µM) | 15.6 (≈ 58.6 µM) | 15.6 (≈ 58.6 µM) | 15.6 (≈ 58.6 µM) | 15.6 (≈ 58.6 µM) | 88.23
3 | CCCCc1ccc(O)c(-c2cc(CCCC)ccc2O)c1 [Butyl magnolol] |  |  |  |  |  | 29.98

— patent publication US9795548B2, “Oral care compositions” (Colgate-Palmolive Company, priority 2012, dated 2017)
